The text below walks through data of ChEMBL document CHEMBL4382226, “Design, synthesis and evaluation of hybrid of tetrahydrocarbazole with 2,4-diaminopyrimidine scaffold as antibacterial agents” (Eur J Med Chem, 2019).

The test system of one data set is Escherichia coli. In words: Antibacterial activity against Escherichia coli AB1157 measured after 16 hrs. In kind it is functional. The settings on record: AB1157, 16 h.
Data set [1] deals with Staphylococcus aureus. In words: Antibacterial activity against Staphylococcus aureus Newman measured after 16 hrs. In kind it is functional.
The subject of data set [2] is Staphylococcus aureus. Nature of the data set: Antibacterial activity against oxacillin/tetracycline-resistant Staphylococcus aureus NRS-100 measured after 16 hrs. Type of data set: functional. The settings on record: NRS-100, 16 h.
For data set [3], the system named is Staphylococcus aureus. In words: Antibacterial activity against linezolid-resistant Staphylococcus aureus NRS-271 measured after 16 hrs. Type of data set: functional. The settings on record: NRS-271, 16 h.
Data set [4] relates to Staphylococcus aureus. In words: Antibacterial activity against gentamicin-resistant Staphylococcus aureus NRS-108 measured after 16 hrs. Type of data set: functional. To be noted: NRS-108, 16 h.
In data set [5] the test system is Staphylococcus aureus. In words: Antibacterial activity against aminoglycosides/tetracycline-resistant Staphylococcus aureus NRS-1 measured after 16 hrs. In kind it is functional. To be noted: NRS-1, 16 h.
Data set [6] has as its system Staphylococcus aureus. Nature of the data set: Antibacterial activity against erythromycin-resistant Staphylococcus aureus NRS-70 measured after 16 hrs. Type of data set: functional. To be noted: NRS-70, 16 h.
The nature of data set [7]: AUC (0 to t) in Sprague-Dawley rat at 10 mg/kg, po administered as single dose via gavage. To be noted: in vivo. Type of data set: ADME, organism-based.
The nature of data set [8]: AUC (0 to infinity) in Sprague-Dawley rat at 10 mg/kg, po administered as single dose via gavage. Also noted: dose 10 mg/kg, route oral, time infinity. To be noted: in vivo. Type of data set: ADME, organism-based.
Data set [9] can be described thus: Apparent volume of distribution in Sprague-Dawley rat at 10 mg/kg, po administered as single dose via gavage. Type of data set: ADME, organism-based. The settings on record: in vivo.
The nature of data set [10]: Clearance in Sprague-Dawley rat at 10 mg/kg, po administered as single dose via gavage. To be noted: in vivo. In kind it is ADME, organism-based.
Data set [11] in a line: Half life in Sprague-Dawley rat at 10 mg/kg, po administered as single dose via gavage. The settings on record: in vivo. Type of data set: ADME, organism-based.
Data set [12] is described as follows: Mean residence time in Sprague-Dawley rat at 10 mg/kg, po administered as single dose via gavage. In kind it is ADME, organism-based. To be noted: in vivo.
A short description of data set [13]: Cmax in Sprague-Dawley rat at 10 mg/kg, po administered as single dose via gavage. To be noted: in vivo. Type of data set: ADME, organism-based. Also noted: dose 10 mg/kg, route oral.
Data set [14] in a line: Tmax in Sprague-Dawley rat at 10 mg/kg, po administered as single dose via gavage. The settings on record: in vivo. In kind it is ADME, organism-based.

Converted amounts (≈) assume the structure as drawn.

For the compound `CC(C)CNc1nccc(NCCNC2CCCc3c2[nH]c2ccc(Br)cc32)n1` (stereo not drawn), the minimum inhibitory concentration (MIC) against Escherichia coli and with Staphylococcus aureus [1] was 1.56 to 3.13 µg/mL (≈ 3.41 to 6.84 µM) each time.
With `CC(C)CNc1nccc(NCCCNC2CCCc3c2[nH]c2ccc(Cl)cc32)n1` (stereo not drawn), the MIC – broadly, the lowest concentration found to suppress growth – is 3.13 to 6.25 µg/mL (≈ 7.33 to 14.6 µM) against Staphylococcus aureus [2]; 1.56 to 3.13 µg/mL (≈ 3.65 to 7.33 µM) with Staphylococcus aureus [3]; 1.56 to 3.13 µg/mL (≈ 3.65 to 7.33 µM) against Staphylococcus aureus [4]; 1.56 to 3.13 µg/mL (≈ 3.65 to 7.33 µM) with Escherichia coli; 1.56 to 3.13 µg/mL (≈ 3.65 to 7.33 µM) against Staphylococcus aureus [5]; 1.56 to 3.13 µg/mL (≈ 3.65 to 7.33 µM) against Staphylococcus aureus [1]. In the data set on Staphylococcus aureus [6], this compound had a minimum inhibitory concentration (MIC) of 3.13 to 6.25 µg/mL (≈ 7.33 to 14.6 µM).
`CC(C)CNc1nccc(NCCCCNC2CCCc3c2[nH]c2ccc(Br)cc32)n1` (stereo not drawn): the MIC with Escherichia coli lay within 1.56 to 3.13 µg/mL (≈ 3.21 to 6.45 µM); in the data set on Staphylococcus aureus [1], 0.78 to 1.56 µg/mL (≈ 1.61 to 3.21 µM).
Turning to `CC(C)CNc1nccc(NCCCNC2CCCc3c2[nH]c2ccc(C(=O)O)cc32)n1` (stereo not drawn), the minimal inhibitory concentration (MIC) against Escherichia coli and in the data set with Staphylococcus aureus [1] was greater than 50 µg/mL in each case.
As to `CC(C)CNc1nccc(NCCCNC2CCCc3c2[nH]c2ccc(Br)cc32)n1` (stereo not drawn), in [7], the AUC(0-t) (usually the area under the concentration-time curve up to a stated or last time point) came to 1200 ng·h/mL. Besides, the area under the curve AUC(0-inf) (usually the area under the concentration-time curve extrapolated to infinity) in [8] was found to be 1560 ng·h/mL. Also, the Vd/F (as a rule, the apparent distribution volume after extravascular dosing) in data set [9] was 103 L/kg. Besides, in data set [10], the CL/F (in general, the apparent clearance, not corrected for the fraction that reaches the circulation) was 110 mL/min/kg. Also, the half-life (in general, the time needed for the level to fall by half in the phase considered) in data set [11] is 10.8 h. Moreover, in data set [12], the mean residence time (MRT) (commonly a mean duration of stay, worked out from the concentration-time curve) turned out to be 16.2 h. Also, the highest level in data set [13] (Cmax) was 86.3 ng/mL. The MIC fell in the range of 0.78 to 1.56 µg/mL (≈ 1.65 to 3.31 µM) in the data set with Staphylococcus aureus [2]; 0.78 to 1.56 µg/mL (≈ 1.65 to 3.31 µM) against Staphylococcus aureus [3]; 0.78 to 1.56 µg/mL (≈ 1.65 to 3.31 µM) against Staphylococcus aureus [4]; 0.39 to 0.78 µg/mL (≈ 0.827 to 1.65 µM) against Escherichia coli; 0.39 to 0.78 µg/mL (≈ 0.827 to 1.65 µM) in the data set with Staphylococcus aureus [5]; 0.39 to 0.78 µg/mL (≈ 0.827 to 1.65 µM) in the data set with Staphylococcus aureus [1]. In the data set with Staphylococcus aureus [6], this compound had a minimal inhibitory concentration (MIC) of 0.78 to 1.56 µg/mL (≈ 1.65 to 3.31 µM). Moreover, in data set [14], the time of peak concentration (Tmax) (usually the time at which the peak concentration occurs) is 3.6 h.
With `CC(C)CNc1nccc(NCCCNC2CCCc3c2[nH]c2ccccc32)n1` (stereo not drawn), the MIC in the data set with Escherichia coli and in the data set on Staphylococcus aureus [1] was 12.5 to 25 µg/mL (≈ 31.8 to 63.7 µM) each time.
Regarding `CN(C)[C@@H]1C(O)=C(C(N)=O)C(=O)[C@@]2(O)C(O)=C3C(=O)c4c(O)cccc4[C@@](C)(O)[C@H]3C[C@@H]12` [TETRACYCLINE], the MIC was less than 1.56 µg/mL against Staphylococcus aureus [2]; less than 1.56 µg/mL against Staphylococcus aureus [3]; less than 1.56 µg/mL in the data set with Staphylococcus aureus [4]; greater than 12.5 µg/mL in the data set on Staphylococcus aureus [5]; less than 1.56 µg/mL against Staphylococcus aureus [6].
As for `Cc1ccc2[nH]c3c(c2c1)CCCC3NCc1ccccc1` (stereo not drawn), in the data set with Staphylococcus aureus [1], the MIC lay in the range of 14.5 to 20.9 µg/mL (≈ 49.9 to 72 µM).
`COC(=O)c1ccc2[nH]c3c(c2c1)CCCC3NCCCNc1ccnc(NCC(C)C)n1` (stereo not drawn): the minimum inhibitory concentration (MIC) is greater than 50 µg/mL with Escherichia coli and 25 to 50 µg/mL (≈ 55.5 to 111 µM) in the data set on Staphylococcus aureus [1].
Take `Cc1ccc2[nH]c3c(c2c1)CCCC3NCCCc1ccccc1` (stereo not drawn): the MIC in the data set with Staphylococcus aureus [1] lay within 4 to 8 µg/mL (≈ 12.6 to 25.1 µM).
On to `CC(C)CNc1nccc(NCCCNC2CCCc3c2[nH]c2ccc(C(F)(F)F)cc32)n1` (stereo not drawn), for which the MIC in the data set with Staphylococcus aureus [2], with Staphylococcus aureus [3], with Staphylococcus aureus [4], against Escherichia coli, against Staphylococcus aureus [5] and in the data set on Staphylococcus aureus [1] was 1.56 to 3.13 µg/mL (≈ 3.39 to 6.8 µM) throughout. In the data set on Staphylococcus aureus [6], this compound had an MIC of 1.56 to 3.13 µg/mL (≈ 3.39 to 6.8 µM).
As to `CC(C)CNc1nccc(NCCCNC2CCCc3c2[nH]c2ccc(F)cc32)n1` (stereo not drawn), the MIC with Escherichia coli and against Staphylococcus aureus [1] was 12.5 to 25 µg/mL (≈ 30.4 to 60.9 µM) throughout.
In the case of `COc1cccc2c3c([nH]c12)C(NCCCNc1ccnc(NCC(C)C)n1)CCC3` (stereo not drawn), the minimal inhibitory concentration (MIC) against Escherichia coli and with Staphylococcus aureus [1] was 12.5 to 25 µg/mL (≈ 29.6 to 59.2 µM) throughout.
Compound `CC(C)CNc1nccc(NC2CCCc3c2[nH]c2ccc(OC(F)(F)F)cc32)n1` (stereo not drawn) yielded an MIC against Staphylococcus aureus [1] of 0.78 to 1.56 µg/mL (≈ 1.86 to 3.72 µM).
On to `CC(C)CNc1nccc(NCCNC2CCCc3c2[nH]c2ccc(OC(F)(F)F)cc32)n1` (stereo not drawn), for which the minimal inhibitory concentration (MIC) in the data set on Escherichia coli and with Staphylococcus aureus [1] was 3.13 to 6.25 µg/mL (≈ 6.77 to 13.5 µM) each time.
Regarding `CC(C)CNc1nccc(NCCCNC2CCCc3c2[nH]c2c(Br)cccc32)n1` (stereo not drawn), the MIC is 6.25 to 12.5 µg/mL (≈ 13.3 to 26.5 µM) against Staphylococcus aureus [2]; 6.25 to 12.5 µg/mL (≈ 13.3 to 26.5 µM) in the data set on Staphylococcus aureus [3]; 6.25 to 12.5 µg/mL (≈ 13.3 to 26.5 µM) against Staphylococcus aureus [4]; 6.25 to 12.5 µg/mL (≈ 13.3 to 26.5 µM) in the data set on Escherichia coli; 3.13 to 6.25 µg/mL (≈ 6.64 to 13.3 µM) against Staphylococcus aureus [5]; 3.13 to 6.25 µg/mL (≈ 6.64 to 13.3 µM) in the data set with Staphylococcus aureus [1]. The compound also had an MIC in the data set on Staphylococcus aureus [6] of 6.25 to 12.5 µg/mL (≈ 13.3 to 26.5 µM).
Take `CC(C)CNc1nccc(NCCCCNC2CCCc3c2[nH]c2ccc(OC(F)(F)F)cc32)n1` (stereo not drawn): the MIC with Escherichia coli was 3.13 to 6.25 µg/mL (≈ 6.38 to 12.7 µM); in the data set on Staphylococcus aureus [1], 1.56 to 3.13 µg/mL (≈ 3.18 to 6.38 µM).
On to `Cc1ccc2[nH]c3c(c2c1)CCCC3NCCCCc1ccccc1` (stereo not drawn), for which the MIC against Staphylococcus aureus [2] is 2.9 to 4.2 µg/mL (≈ 8.72 to 12.6 µM); against Staphylococcus aureus [3] it was 4.2 to 5.8 µg/mL (≈ 12.6 to 17.4 µM); in the data set with Staphylococcus aureus [4], 4.2 to 5.8 µg/mL (≈ 12.6 to 17.4 µM); in the data set on Staphylococcus aureus [5], 2.9 to 4.2 µg/mL (≈ 8.72 to 12.6 µM); against Staphylococcus aureus [1], 5 to 6.6 µg/mL (≈ 15 to 19.9 µM); in the data set with Staphylococcus aureus [6], 2.9 to 4.2 µg/mL (≈ 8.72 to 12.6 µM).
For `NC[C@H]1O[C@H](O[C@H]2[C@H](O)[C@@H](O[C@H]3O[C@H](CO)[C@@H](O)[C@H](N)[C@H]3O)[C@H](N)C[C@@H]2N)[C@H](O)[C@@H](O)[C@@H]1O` [KANAMYCIN], the MIC in the data set on Staphylococcus aureus [4] is 50 to 75 µg/mL (≈ 103 to 155 µM); against Escherichia coli, greater than 50 µg/mL; with Staphylococcus aureus [5], 50 to 75 µg/mL (≈ 103 to 155 µM); with Staphylococcus aureus [6], 50 to 75 µg/mL (≈ 103 to 155 µM).
In the case of `COc1ccc2[nH]c3c(c2c1)CCCC3NCCCNc1ccnc(NCC(C)C)n1` (stereo not drawn), the figures for the minimal inhibitory concentration (MIC) in the data set on Escherichia coli and against Staphylococcus aureus [1] were greater than 50 µg/mL and 25 to 50 µg/mL (≈ 59.2 to 118 µM), respectively.
For `CN[C@H](CC(C)C)C(=O)N[C@H]1C(=O)N[C@@H](CC(N)=O)C(=O)N[C@H]2C(=O)N[C@H]3C(=O)N[C@H](C(=O)N[C@H](C(=O)O)c4cc(O)cc(O)c4-c4cc3ccc4O)[C@H](O)c3ccc(c(Cl)c3)Oc3cc2cc(c3O[C@@H]2O[C@H](CO)[C@@H](O)[C@H](O)[C@H]2O[C@H]2C[C@](C)(N)[C@H](O)[C@H](C)O2)Oc2ccc(cc2Cl)[C@H]1O` [VANCOMYCIN], in the data set with Escherichia coli, the minimal inhibitory concentration (MIC) was in the range of 6.25 to 12.5 µg/mL (≈ 4.31 to 8.63 µM).
In the case of `CC(C)CNc1nccc(NCCCNC2CCCc3c2[nH]c2ccc(OC(F)(F)F)cc32)n1` (stereo not drawn), the MIC with Staphylococcus aureus [2], in the data set with Staphylococcus aureus [3], against Staphylococcus aureus [4], in the data set with Escherichia coli, against Staphylococcus aureus [5] and in the data set with Staphylococcus aureus [1] was 1.56 to 3.13 µg/mL (≈ 3.27 to 6.57 µM) throughout. This compound came in with an MIC against Staphylococcus aureus [6] of 1.56 to 3.13 µg/mL (≈ 3.27 to 6.57 µM).
`Cc1ccc2[nH]c3c(c2c1)CCCC3NCCc1ccccc1` (stereo not drawn): in the data set on Staphylococcus aureus [1], the minimal inhibitory concentration (MIC) is 15 to 30.2 µg/mL (≈ 49.3 to 99.2 µM).
